Assay results taken from patent US20140088187A1, “ANDROGEN RECEPTOR INHIBITORS AND METHODS OF USE THEREOF” (BETH ISRAEL DEACONESS MEDICAL CENTER, priority 2010, published 2014).
Changes are numbered by the printed parent chain. “Also recorded” adds a separate entry of the source.

Tests used:
wildtype AR = biological target: T1, wildtype AR (Homo sapiens, UniProt P10275); assay: AR-responsive firefly luciferase reporter assay in COS7 cells transfected with AR (DHT-stimulated AR activity); format: cell-based; details: relative to initial chemotype A compounds; data not shown
T1 construct: The AR WT construct expresses full-length human AR under cmv promoter control; expressed in transfected cells; host or cells: COS7
T1 sequence (P10275 1-920): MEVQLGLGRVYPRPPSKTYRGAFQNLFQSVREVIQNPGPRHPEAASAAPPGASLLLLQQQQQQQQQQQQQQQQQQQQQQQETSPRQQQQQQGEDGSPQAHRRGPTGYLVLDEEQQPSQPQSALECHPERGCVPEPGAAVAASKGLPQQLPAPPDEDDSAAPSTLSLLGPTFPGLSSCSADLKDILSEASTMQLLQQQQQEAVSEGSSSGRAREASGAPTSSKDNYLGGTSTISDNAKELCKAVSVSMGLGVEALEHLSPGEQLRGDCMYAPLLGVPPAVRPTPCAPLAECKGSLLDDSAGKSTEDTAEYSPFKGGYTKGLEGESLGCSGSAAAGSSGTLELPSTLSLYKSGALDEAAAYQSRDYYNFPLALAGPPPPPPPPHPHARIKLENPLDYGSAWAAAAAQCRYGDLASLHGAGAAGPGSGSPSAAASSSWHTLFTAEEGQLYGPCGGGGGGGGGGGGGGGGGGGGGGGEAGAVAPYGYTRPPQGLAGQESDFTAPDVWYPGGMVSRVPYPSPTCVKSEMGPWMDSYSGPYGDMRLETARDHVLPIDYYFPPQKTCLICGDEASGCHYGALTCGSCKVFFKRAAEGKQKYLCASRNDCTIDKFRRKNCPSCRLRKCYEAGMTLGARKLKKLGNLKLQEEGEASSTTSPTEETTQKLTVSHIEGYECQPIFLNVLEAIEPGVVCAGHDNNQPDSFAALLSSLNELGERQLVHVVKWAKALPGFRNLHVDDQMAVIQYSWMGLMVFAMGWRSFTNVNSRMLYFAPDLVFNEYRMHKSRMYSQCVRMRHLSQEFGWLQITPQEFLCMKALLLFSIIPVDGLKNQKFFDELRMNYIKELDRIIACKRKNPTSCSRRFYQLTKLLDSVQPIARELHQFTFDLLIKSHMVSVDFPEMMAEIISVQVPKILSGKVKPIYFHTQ
Description: FIG. 13. Antagonist activity of generation 4 compounds at 25 micromolar. […] Reporter firefly luciferase is corrected for control Renilla activity.
FIG. 14. Antagonist activity of generation 4 compounds at 1-10 micromolar. […] Reporter firefly luciferase is corrected for control Renilla activity. […]
The AR-responsive firefly luciferase reporter consists of 4 tandem repeats of the consensus steroid response element cloned upstream of the pGL3-Basic Luciferase vector (Promega). The AR WT construct expresses full-length human AR under cmv promoter control.
Luciferase activity was determined using the Dual-Luciferase Reporter Assay System (Promega E1910).

AR in VCaP cells = biological target: T2, AR in VCaP cells (Homo sapiens, UniProt P10275); assay: Nuclear AR, total AR protein and PSA expression in VCaP cells in steroid depleted medium; format: cell-based
T2 construct: endogenous in cells; host or cells: VCaP
T2 sequence (P10275 1-920): T1 sequence (P10275 1-920)
Description: VCaP cells, derived from a CRPC vertebral metastasis, express substantial levels of AR and AR regulated genes such as PSA even when cultured in steroid depleted medium. […] In additional studies focused on chemotype A compounds, we used immunofluorescence to assess AR nuclear localization. […] In contrast, and consistent with the biochemical fractionation studies noted above, basal nuclear AR was decreased by A61.
We used the NE-PER Nuclear and Cytoplasmic Extraction Reagents (Pierce 78833).

[1] = biological target: T3, wild-type AR in PC3-AR cells (Homo sapiens, UniProt P10275); assay: AR protein levels and degradation (cycloheximide) in PC3-AR cells; format: cell-based
T3 construct: expressed in transfected cells
T3 sequence (P10275 1-920): T1 sequence (P10275 1-920)
Protocol: As LNCaP and C4-2 cells express the T877A mutant AR, we next examined PC3-AR cells expressing wildtype AR. As observed in C4-2 cells, A89 caused a decrease in AR protein levels (FIG. 10d). To further validate that this was due to increased AR protein degradation, we pretreated these cells with A89 for 2 hours and then blocked new protein synthesis with cycloheximide (CHX). […] We finally examined VCaP cells.

AR in C4-2 cells = biological target: T4, AR in C4-2 cells (Homo sapiens, UniProt P10275, T878A)
T4 sequence (P10275 1-920 T878A): T1 sequence (P10275 1-920) with T878A

[2] = steroid depleted medium, data not shown
[3] = steroid depleted medium, dose response

nuclear AR (AR in VCaP cells; 10 μM, steroid depleted medium): significantly decreased nuclear AR | DHT stimulated PSA expression (AR in VCaP cells; not shown): blocking DHT stimulated PSA expression | time within which AR protein decreased ([1]; A89 10 μM, PC3-AR cells): ≤ 4 h | time within which total AR protein dramatically decreased after cycloheximide (CHX) ([1]; A89 treated PC3-AR cells plus CHX): ≤ 1 h | AR protein levels ([1]; PC3-AR cells expressing wildtype AR): decrease | AR protein levels after cycloheximide ([1]; PC3-AR cells pretreated with A89 for 2 hours, then 1 hour CHX, versus CHX alone): declined markedly | basal PSA (AR in C4-2 cells; 24 hours (FIG. 10a)): decrease in basal PSA | total AR protein levels (AR in C4-2 cells; 24 hours (FIG. 10a)): noteworthy decrease | PSA expression (AR in C4-2 cells; [2]): reduced | nuclear AR levels (AR in C4-2 cells; [2]): reduced nuclear AR levels | AR protein (AR in C4-2 cells; [3]): dose dependent decrease | PSA levels (AR in C4-2 cells; [3]): dose dependent decrease
Compound: CCOc1cc(F)c(S(=O)(=O)NCc2ccc3c(c2)OCO3)cc1F [Compound A89, N-(1,3-benzodioxol-5-ylmethyl)-4-ethoxy-2,5-difluorobenzenesulfonamide]
potency in antagonizing AR activity in luciferase reporter assays (wildtype AR): increased potency; also recorded: relatively higher potency | basal level PSA expression (AR in VCaP cells; 10 μM, steroid depleted medium): further decreasing basal level PSA expression | decrease in AR protein in the presence of proteasome inhibitor (AR in C4-2 cells; proteasome inhibitors (MG115 and MG132)): blocked in the presence of a proteasome inhibitor
